Source: patent US20100086929A1, “DETECTION OF ANALYTES” (DO-COOP TECHNOLOGIES LTD., priority 2007, published 2010)
Counter-ions that a name gives are not always drawn. Blank lines part the entries; values can stand above or below the compound they belong to. Where no end group is shown, it is not given here.

How the values were obtained:
[1] = cited from earlier work
[2] = Solubilizing CD-Dau, Daunorubicine and t-boc in Neowater (Example 7); assay type: physicochemical
Description: Required concentration: 3 mg/ml Neowater.
Properties: The material dissolves in EtOH.
5 different glass vials were prepared: • 1. 5 mg CD-Dau+1.2 ml Neowater™. • 2. 1.8 mg CD-Dau+600 μl acetone. • 3. 1.8 mg CD-Dau+150 μl acetone+450 μl Neowater™ (25% acetone). • 4. 1.8 mg CD-Dau+600 μl 10% *PEG (Polyethylene Glycol). • 5. 1.8 mg CD-Dau+600 μl acetone+600 μl Neowater™. • The samples were vortexed and spectrophotometer measurements were performed on vials #1, 4 and 5 • The vials were left opened in order to evaporate the acetone (vials #2, 3, and 5).
As soon as the acetone was evaporated from solutions #2, 4 and 5, the material sedimented slightly and an additional amount of acetone was added to the vials. This protocol enables the dissolving of the material in the presence of acetone and Neowater™ while at the same time enabling the subsequent evaporation of acetone from the solution (this procedure was performed twice). Following the second cycle the liquid phase was removed from the vile and additional amount of acetone was added to the sediment material. Once the sediment material dissolved it was merged with the liquid phase removed previously. The merged solution was evaporated again. […] Later 1.2 ml of 10% PEG+Neowater™ were added also and after some time the acetone was evaporated from the solution. Finalizing these procedures, the vials were merged to one vial (total volume of 3 ml). On top of this final volume 3 ml of acetone were added in order to dissolve the material and to receive a lucid liquefied solution, which was then evaporated again at 50° C. The solution didn't reach equilibrium due to the fact that once reaching such status the solution would have been separated. By avoiding equilibrium, the material hydration status was maintained and kept as liquid. After the solvent evaporated the material was transferred to a clean vial and was closed under vacuum conditions.
2 mg Daunorubicine+1 ml Neowater™ was prepared in one vial and 2 mg of Daunorubicine+1 ml RO was prepared in a second vial.
1.14 ml of EtOH was added to one glass vial containing 18.5 mg of t-boc (an oily material). This was then divided into two vials and 1.74 ml Neowater™ or RO water was added to the vials such that the solution comprised 25% EtOH. Following spectrophotometer measurements, the solvent was evaporated from the solution and Neowater™ was added to both vials to a final volume of 2.31 ml in each vial. The solutions in the two vials were merged to one clean vial and packaged for shipment under vacuum conditions.

[3] = Solubilization of retinol in Neowater, absorbance and filtration (Example 10); assay type: physicochemical
Description: Retinol (vitamin A) was purchased from Sigma (Fluka, 99% HPLC). Retinol was solubilized in Neowater™ under the following conditions. 1% retinol (0.01 gr in 1 ml) in EtOH and Neowater™ 0.5% retinol (0.005 gr in 1 ml) in EtOH and Neowater™ 0.5% retinol (0.125 gr in 25 ml) in EtOH and Neowater™ 0.25% retinol (0.0625 gr in 25 ml) in EtOH and Neowater™. […] Absorbance spectrum of retinol in EtOH: Retinol solutions were made in absolute EtOH, with different retinol concentrations, in order to create a calibration graph; absorbance spectrum was detected in a spectrophotometer. […] Actual concentration of retinol is also unknown since some oil drops are not dissolved in the water. […] The solutions were filtrated in […] filter.

[4] = Solubilization of taxol in DMSO or Neowater with 17% EtOH (Example 13); assay type: physicochemical
Description: The following experiments were performed in order to ascertain whether the carrier composition comprising nanostructures was capable of dissolving material taxol (Paclitaxel) at a final concentration of 0.5 mM.
Solubilization: 0.5 mM Taxol solution was prepared (0.0017 gr in 4 ml) in either DMSO or Neowater™ with 17% EtOH. Absorbance was detected with a spectrophotometer.

[5] = Taxol in Neowater by slow solvent exchange, HPLC after storage (Example 16); assay type: physicochemical; conditions: taxol dispersed in Neowater, 6 month storage at −20° C.
Description: Solubilization: 0.5 mM Taxol solution was prepared (0.0017 gr in 4 ml). […] At the end of the procedure, less than 40% ethanol remained in the solution, leading to 0.08% of ethanol in the final administered concentration. The solution was sterilized using a 0.2 μm filter. Taxol was separately prepared in DMSO (0.5 mM). Both solutions were kept at −20° C. Absorbance was detected with a spectrophotometer.

[6] = Solubilization of peptides in Neowater (Example 9); assay type: physicochemical; conditions: Neowater at 0.5 mM
Description: In addition, the effect of the peptides on Skov-3 cells was measured in order to ascertain whether the carrier composition comprising nanostructures influenced the cytotoxic activity of the peptides.
Solubilization: All seven peptides (Peptide X, X-5FU, NLS-E, Palm-PFPSYK (CMFU), […]-NH2, NLS-p2-LHRH, and F-LH-RH-palm kGFPSK) were dissolved in Neowater™ at 0.5 mM. Spectrophotometric measurements were taken.

Compound: COc1cccc2c1C(=O)c1c(O)c3c(c(O)c1C2=O)C[C@@](O)(C(C)=O)C[C@@H]3O[C@H]1C[C@H](N)[C@H](O)[C@H](C)O1 [Daunorubicine, Cerubidine hydrochloride]
solubility in water [1]: known not to dissolve in water
dissolving ([2]; 2 mg in 1 ml Neowater): dissolves without difficulty
dissolving ([2]; 2 mg in 1 ml RO): dissolves without difficulty

retinol concentration in EtOH with similar absorbance pattern ([3]; 0.25% retinol in Neowater): ~0.03125%
retinol in the solutions following filtration ([3]; 0.25% retinol in Neowater, 1.5% EtOH, 0.44 and 0.2 filter): less than 0.03125%
retinol concentration in EtOH with similar absorbance pattern ([3]; 0.5% retinol in Neowater): ~0.125%
Compound: CC1=C(/C=C/C(C)=C/C=C/C(C)=C/CO)C(C)(C)CCC1 [Retinol]

dissolving ([4]; 0.5 mM in DMSO): dissolved
dissolving ([4]; 0.5 mM in Neowater with 17% EtOH): dissolved
structural changes on storage (HPLC) [5]: no structural changes
Compound: CC(=O)O[C@H]1C(=O)[C@@]2(C)[C@H]([C@H](OC(=O)c3ccccc3)[C@]3(O)C[C@H](OC(=O)[C@H](O)[C@@H](NC(=O)c4ccccc4)c4ccccc4)C(C)=C1C3(C)C)[C@]1(OC(C)=O)CO[C@@H]1C[C@@H]2O [Taxol, Paclitaxel]

Compound: Daidzein—daunomycin conjugate [CD-Dau]
solubility in water [1]: known not to dissolve in water
dissolving ([2]; Vial #1, 100% Neowater, 5 mg in 1.2 ml): sedimented after a few hours
dissolving ([2]; Vial #2, 100% acetone, 1.8 mg in 600 μl): 48 hours later the material sedimented partially
dissolving ([2]; Vial #3, 25% acetone in Neowater): didn't dissolve very well
dissolving ([2]; Vial #4, 10% PEG+Neowater): dissolved better than the CD-Dau in vial #1
dissolving ([2]; Vial #5, acetone then Neowater, acetone evaporated): as the acetone evaporated the material partially sediment to the bottom of the vial

dissolving [6]: dissolved
Compound: F-LH-RH-palm kGFPSK

Compound: PFPSYKLRPG-NH2
dissolving [6]: dissolved

dissolving [6]: dissolved
Compound: Palm-PFPSYK (CMFU)
